One block for each compound: values may come before it.
Columns and labels:
MytA (MytAhis) [1] = molecular target: T1, MytA (MytAhis) (Corynebacterium glutamicum, UniProt P0C1D6); assay: trehalose acylation (trehalose dipalmitate formation), MALDI-TOF MS; format: biochemical; details: 1 mM, acts as donor and acceptor, 5 μM MytA, pH 8.0, 37 °C, 3 h
T1 construct: gene csp1

MytC (MytChis) [2] = molecular target: T2, MytC (MytChis) (Corynebacterium glutamicum, UniProt Q8NTG4); assay: X-ray crystallography, […] Å; format: binding
T2 construct: gene Cgl0343; residues 30-363 seen in crystal

MytC (MytChis) [3] = molecular target: T2, MytC (MytChis); assay: PorA mycoloylation, MALDI-TOF MS; format: biochemical; details: PorA acceptor; in combination with TDM/TMM mix, pH 8.0, 37 °C, 3 h
MytA (MytAhis) [4] = molecular target: T1, MytA (MytAhis); assay: trehalose mycoloylation (TDM formation), TLC and MALDI-TOF MS; format: biochemical; details: 1 mM, acts as donor and acceptor, 5 μM MytA, pH 8.0, 37 °C, 3 h

T2 sequence (Q8NTG4 entry or part of it): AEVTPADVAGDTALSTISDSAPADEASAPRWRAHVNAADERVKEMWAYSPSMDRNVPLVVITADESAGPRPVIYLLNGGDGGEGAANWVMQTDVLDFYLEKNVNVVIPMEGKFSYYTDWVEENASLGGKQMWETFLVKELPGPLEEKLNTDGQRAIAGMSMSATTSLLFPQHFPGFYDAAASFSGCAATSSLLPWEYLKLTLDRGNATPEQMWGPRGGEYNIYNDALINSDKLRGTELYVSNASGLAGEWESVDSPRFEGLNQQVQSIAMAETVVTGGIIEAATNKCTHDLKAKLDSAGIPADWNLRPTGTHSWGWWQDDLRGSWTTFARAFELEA
T1 sequence (P0C1D6 44-657): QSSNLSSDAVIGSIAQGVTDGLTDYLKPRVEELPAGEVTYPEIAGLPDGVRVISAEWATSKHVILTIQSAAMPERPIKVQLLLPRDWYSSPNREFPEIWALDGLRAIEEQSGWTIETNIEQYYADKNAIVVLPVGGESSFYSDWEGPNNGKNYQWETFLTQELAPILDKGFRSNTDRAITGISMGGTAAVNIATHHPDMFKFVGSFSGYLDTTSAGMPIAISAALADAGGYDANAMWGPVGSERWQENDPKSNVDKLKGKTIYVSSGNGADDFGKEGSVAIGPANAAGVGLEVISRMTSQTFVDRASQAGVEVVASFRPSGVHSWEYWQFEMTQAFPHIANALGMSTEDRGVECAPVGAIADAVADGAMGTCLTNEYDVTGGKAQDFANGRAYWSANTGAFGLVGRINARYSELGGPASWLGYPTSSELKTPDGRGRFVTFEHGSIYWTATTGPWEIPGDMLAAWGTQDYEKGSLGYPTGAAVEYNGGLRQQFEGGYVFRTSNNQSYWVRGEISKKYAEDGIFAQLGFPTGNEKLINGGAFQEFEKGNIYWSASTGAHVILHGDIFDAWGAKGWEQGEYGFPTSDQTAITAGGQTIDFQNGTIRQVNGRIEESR

SMILES: CCCCCCCCCCCCCCCC(=O)OC[C@H]1O[C@H](O[C@H]2O[C@H](CO)[C@@H](O)[C@H](O)[C@H]2O)[C@H](O)[C@@H](O)[C@@H]1O [compound 6, TMP]
- trehalose acylation (trehalose dipalmitate formation), MALDI-TOF MS (MytA (MytAhis) [1]): both compounds are efficient substrates of MytA

SMILES: CCCCC[C@@H](O)[C@@H](CCCCC)C(=O)OC[C@H]1O[C@H](O[C@H]2O[C@H](CO)[C@@H](O)[C@H](O)[C@H]2O)[C@H](O)[C@@H](O)[C@@H]1O [compound 2, TMM-C13:0]
- X-ray crystallography, 2.69 Å (MytC (MytChis) [2]; covalent, mycoloyl ester on catalytic S189, co-crystallised, pH 7.1): S189 Oγ atom forms an ester bond with the carbonyl of the analog

SMILES: CCCCCCCCCCCCCCC[C@@H](O)CC(=O)OC[C@H]1O[C@H](O[C@H]2O[C@H](CO)[C@@H](O)[C@H](O)[C@H]2O)[C@H](O)[C@@H](O)[C@@H]1O [compound 4, analog 4]
- PorA mycoloylation, MALDI-TOF MS (MytC (MytChis) [3]): is perfectly used as a substrate to acylate PorA

- trehalose mycoloylation (TDM formation), TLC and MALDI-TOF MS (MytA (MytAhis) [4]): a small amount of TDM is detected on TLC
SMILES: CCCCCCCCCCCCCCC[C@@H](O)[C@@H](CCCCCCCCCCCCCC)C(=O)OC[C@H]1O[C@H](O[C@H]2O[C@H](CO)[C@@H](O)[C@H](O)[C@H]2O)[C@H](O)[C@@H](O)[C@@H]1O [synthetic TMM-C32:0]

SMILES: OC[C@H]1O[C@H](O[C@H]2O[C@H](CO)[C@@H](O)[C@H](O)[C@H]2O)[C@H](O)[C@@H](O)[C@@H]1O [trehalose]
- X-ray crystallography, 2.69 Å (MytC (MytChis) [2]; second site, protein surface near active site groove, contacts E225 and D232 of helix α8, crystal with TMM-C13:0): A trehalose moiety was identified on the surface of MytC

Reference: PMC11927696, “Synthetic mycolates derivatives to decipher protein mycoloylation, a unique post-translational modification in bacteria” (The Journal of Biological Chemistry, 2025)
